# Laboratory results as given in US5041567A, “Antibacterial monic acid derivatives” (Beecham Group plc, priority 1982, dated 1991).
# Read-outs that look alike come from different tables or passages of the source.
# Key:
# [1] = test system: Staph. aureus W2827; assay: MIC against human bacteria in vitro; assay type: cell-based; details: Staphylococcus aureus; Staph. aureus W2827; 5% chocolated horse blood agar, 18 hours; read-out: MIC
# [2] = test system: M. suipneumoniae UCD 1; assay: MIC against mycoplasma in vitro; assay type: cell-based; details: Mesomycoplasma hyopneumoniae, UCD1, 144 h; M. suipneumoniae UCD 1; 6 days, 37° C.; read-out: MIC
# [3] = test system: Staph. aureus Russell; assay: MIC against human bacteria in vitro; assay type: cell-based; details: Staphylococcus aureus; Staph. aureus Russell; 5% chocolated horse blood agar, 18 hours; read-out: MIC
# [4] = test system: Strep. dysgalactiae SPD1; assay: MIC against veterinary bacteria in vitro; details: Streptococcus dysgalactiae, SPD1, 18 h
# Procedure: (§1) The activity of the compounds of the Examples against various veterinarily important bacteria, was assayed in vitro using two-fold serial dilutions in Diagnostic Sensitivity Test Agar inoculated with 10^4 organisms.
# [5] = test system: Strep. pneumoniae CN33; assay: MIC against human bacteria in vitro; assay type: cell-based; details: Streptococcus pneumoniae
# [6] = test system: M. suipneumoniae PW/C/210; assay: MIC against mycoplasma in vitro; assay type: cell-based; details: Mesomycoplasma hyopneumoniae, 144 h; M. suipneumoniae PW/C/210; 6 days, 37° C.; read-out: MIC
# [7] = test system: Strep. faecalis I; assay: MIC against human bacteria in vitro; assay type: cell-based; details: Enterococcus faecalis; Strep. faecalis I; 5% chocolated horse blood agar, 18 hours; read-out: MIC
# [8] = test system: Staph. aureus B4 (pen. resistant); assay: MIC against veterinary bacteria in vitro; details: Staphylococcus aureus, 18 h
# Procedure: as §1
# [9] = test system: E. coli ESS; assay: MIC against human bacteria in vitro; assay type: cell-based; details: Escherichia coli
# [10] = test system: Past. multocida PA1; assay: MIC against veterinary bacteria in vitro; details: Pasteurella multocida, PA1, 18 h
# Procedure: as §1
# [11] = test system: Strep. suis (group D) SPS11; assay: MIC against veterinary bacteria in vitro; details: Streptococcus suis, 18 h
# Procedure: as §1
# [12] = test system: P. mirabilis 889; assay: MIC against human bacteria in vitro; assay type: cell-based; details: Proteus mirabilis, 889, 18 h
# [13] = test system: M. hyorhinis ATCC 25021; assay: MIC against mycoplasma in vitro; assay type: cell-based; details: Mesomycoplasma hyorhinis, ATCC25021, 144 h; M. hyorhinis ATCC 25021; 6 days, 37° C.; read-out: MIC
# [14] = test system: M. suipneumoniae MS 16; assay: MIC against mycoplasma in vitro; assay type: cell-based; details: Mesomycoplasma hyopneumoniae, MS16, 144 h; M. suipneumoniae MS 16; 6 days, 37° C.; read-out: MIC
# [15] = test system: Strep. agalactiae 2788-B; assay: MIC against human bacteria in vitro; assay type: cell-based; details: Streptococcus agalactiae; Strep. agalactiae 2788-B; 5% chocolated horse blood agar, 18 hours; read-out: MIC
# [16] = test system: Bacillus subtilis 6633; assay: MIC against human bacteria in vitro; assay type: cell-based; details: Bacillus subtilis 6633; 5% chocolated horse blood agar, 18 hours; read-out: MIC
# [17] = test system: S. dublin S7; assay: MIC against veterinary bacteria in vitro; details: Salmonella enterica, S7, 18 h
# Procedure: as §1
# [18] = test system: M. dispar NCTC 10125; assay: MIC against mycoplasma in vitro; assay type: cell-based; details: 144 h
# [19] = test system: M. suipneumoniae TAM 6N; assay: MIC against mycoplasma in vitro; assay type: cell-based; details: Mesomycoplasma hyopneumoniae, TAM6N, 144 h; M. suipneumoniae TAM 6N; 6 days, 37° C.; read-out: MIC
# [20] = test system: Staph. aureus Oxford; assay: MIC against human bacteria in vitro; assay type: cell-based; details: Staphylococcus aureus; Staph. aureus Oxford; 5% chocolated horse blood agar, 18 hours; read-out: MIC
# [21] = test system: E. coli E1; assay: MIC against veterinary bacteria in vitro; details: Escherichia coli, E1, 18 h
# Procedure: as §1
# [22] = test system: M. hyorhinis ATCC 23234; assay: MIC against mycoplasma in vitro; assay type: cell-based; details: Mesomycoplasma hyorhinis, ATCC23234, 144 h; M. hyorhinis ATCC 23234; 6 days, 37° C.; read-out: MIC
# [23] = test system: M. suipneumoniae LABER; assay: MIC against mycoplasma in vitro; assay type: cell-based; details: Mesomycoplasma hyopneumoniae, 144 h; M. suipneumoniae LABER; 6 days, 37° C.; read-out: MIC
# [24] = test system: Strep. spp. 64/848-C; assay: MIC against human bacteria in vitro; assay type: cell-based; details: Strep. spp. 64/848-C; 5% chocolated horse blood agar, 18 hours; read-out: MIC
# [25] = test system: K. aerogenes A; assay: MIC against human bacteria in vitro; assay type: cell-based; details: Klebsiella aerogenes; K. aerogenes A; 5% chocolated horse blood agar, 18 hours; read-out: MIC
# [26] = test system: E. coli NCTC 10418; assay: MIC against human bacteria in vitro; assay type: cell-based; details: Escherichia coli, NCTC10418, 18 h
# [27] = test system: M. suipneumoniae ATCC 25095; assay: MIC against mycoplasma in vitro; assay type: cell-based; details: Mesomycoplasma hyopneumoniae, ATCC25095, 144 h; M. suipneumoniae ATCC 25095; 6 days, 37° C.; read-out: MIC
# [28] = test system: Pasteurella multocida 1633; assay: MIC against human bacteria in vitro; assay type: cell-based; details: Pasteurella multocida 1633; 5% chocolated horse blood agar, 18 hours; read-out: MIC
# [29] = test system: Corynebacterium xerosis 9755; assay: MIC against human bacteria in vitro; assay type: cell-based; details: Corynebacterium xerosis 9755; 5% chocolated horse blood agar, 18 hours; read-out: MIC
# [30] = test system: Past. multocida PA2; assay: MIC against veterinary bacteria in vitro; details: Pasteurella multocida, PA2, 18 h
# Procedure: as §1
# [31] = test system: M. suipneumoniae HK(2); assay: MIC against mycoplasma in vitro; assay type: cell-based; details: Mesomycoplasma hyopneumoniae, 144 h; M. suipneumoniae HK(2); 6 days, 37° C.; read-out: MIC
# [32] = test system: Bord. bronchiseptica B09; assay: MIC against veterinary bacteria in vitro; details: Bordetella bronchiseptica, B09, 18 h
# Procedure: as §1
# [33] = test system: Strep. agalactiae SPA1; assay: MIC against veterinary bacteria in vitro; details: Streptococcus agalactiae, SPA1, 18 h
# Procedure: as §1
# [34] = test system: Bord. bronchiseptica B08; assay: MIC against veterinary bacteria in vitro; details: Bordetella bronchiseptica, B08, 18 h
# Procedure: as §1
# [35] = test system: Sarcina lutea 8340; assay: MIC against human bacteria in vitro; assay type: cell-based; details: Micrococcus luteus; Sarcina lutea 8340; 5% chocolated horse blood agar, 18 hours; read-out: MIC
structure (smiles),measurement,setting,value
"C/C(=C\c1ncc(-c2ccccc2)s1)C[C@@H]1OC[C@H](C[C@@H]2O[C@H]2[C@@H](C)[C@H](C)O)[C@@H](O)[C@H]1O [Example 29, 2-(1-Normon-2-yl)-5-phenylthiazole A]",MIC,[1],50 µg/mL
same,MIC,[2],> 10 µg/mL
same,MIC,[3],100 µg/mL
same,MIC,[4],20 µg/mL
same,MIC,"[5]; Strep. pneumoniae CN33, 5% chocolated horse blood agar, 18 hours, read-out: MIC",50 µg/mL
same,MIC,[6],10 µg/mL
same,MIC,[7],> 100 µg/mL
same,MIC,[8],10 µg/mL
same,MIC,[9]; 18 h,> 100 µg/mL
same,MIC,[10],> 80 µg/mL
same,MIC,[11],> 80 µg/mL
same,MIC,[12],> 100 µg/mL
same,MIC,[13],10 µg/mL
same,MIC,[14],10 µg/mL
same,MIC,[15],50 µg/mL
same,MIC,[16],50 µg/mL
same,MIC,[17],> 80 µg/mL
same,MIC,[18],2.5 µg/mL
same,MIC,[19],> 10 µg/mL
same,MIC,[20],25 µg/mL
same,MIC,[21],> 80 µg/mL
same,MIC,[22],> 10 µg/mL
same,MIC,[23],10 µg/mL
same,MIC,[24],25 µg/mL
same,MIC,[25],> 100 µg/mL
same,MIC,[26],> 100 µg/mL
same,MIC,[27],10 µg/mL
same,MIC,[28],> 100 µg/mL
same,MIC,[29],> 100 µg/mL
same,MIC,[30],80 µg/mL
same,MIC,[31],> 10 µg/mL
same,MIC,[32],> 80 µg/mL
same,MIC,[33],40 µg/mL
same,MIC,[34],> 80 µg/mL
same,MIC,[35],> 100 µg/mL
"C/C(=C\c1nc(-c2ccccc2)c(-c2ccccc2)o1)C[C@@H]1OC[C@H](C[C@@H]2O[C@H]2[C@@H](C)[C@H](C)O)[C@@H](O)[C@H]1O [Example 41, 4,5-Diphenyl-2-(1-normon-2-yl)oxazole A]",MIC,[1],> 100 µg/mL
same,MIC,[2],> 10 µg/mL
same,MIC,[3],> 100 µg/mL
same,MIC,[4],20 µg/mL
same,MIC,"[5]; CN33, 18 h",> 100 µg/mL
same,MIC,[6],> 10 µg/mL
same,MIC,[7],> 100 µg/mL
same,MIC,[8],40 µg/mL
same,MIC,"[9]; E. coli ESS, 5% chocolated horse blood agar, 18 hours, read-out: MIC",50 µg/mL
same,MIC,[10],40 µg/mL
same,MIC,[11],> 80 µg/mL
same,MIC,[12],> 100 µg/mL
same,MIC,[13],> 10 µg/mL
same,MIC,[14],> 10 µg/mL
same,MIC,[15],> 100 µg/mL
same,MIC,[16],100 µg/mL
same,MIC,[17],> 80 µg/mL
same,MIC,"[18]; M. dispar NCTC 10125, 6 days, 37° C., read-out: MIC",> 10 µg/mL
same,MIC,[19],> 10 µg/mL
same,MIC,[20],100 µg/mL
same,MIC,[21],> 80 µg/mL
same,MIC,[22],> 10 µg/mL
same,MIC,[23],> 10 µg/mL
same,MIC,[24],100 µg/mL
same,MIC,[25],> 100 µg/mL
same,MIC,[26],> 100 µg/mL
same,MIC,[27],> 10 µg/mL
same,MIC,[28],25 µg/mL
same,MIC,[29],> 100 µg/mL
same,MIC,[30],20 µg/mL
same,MIC,[31],> 10 µg/mL
same,MIC,[32],> 80 µg/mL
same,MIC,[33],40 µg/mL
same,MIC,[34],> 80 µg/mL
same,MIC,[35],> 100 µg/mL
